Measured values as given in patent US20240166652A1, “MODULATORS OF THE INTEGRATED STRESS PATHWAY” (Calico Life Sciences LLC, priority 2017, published 2024).

test system: ATF4 luciferase reporter in HEK293T cells; experiment: ATF4-Luc assay (ATF4 luciferase reporter, tunicamycin-treated HEK293T cells); assay type: cell-based, human; details: Homo sapiens, HEK-293T; HEK293T cells carrying the ATF4 luciferase reporter, 1 μg/mL tunicamycin, 7 hours

First: O=C(COc1ccc(Cl)c(F)c1)NC12CC(NCCCOc3ccc(Cl)c(F)c3)(C1)C2 [Compound 705, 2-(4-chloro-3-fluorophenoxy)-N-(3-{[3-(4-chloro-3-fluorophenoxy)propyl]amino}bicyclo[1.1.1]pentan-1-yl)acetamide]
Second: O=C(COc1ccc(Cl)c(F)c1)NC12CC(NC(=O)COc3cnc(Cl)c(F)c3)(C1)C2 [Compound 227, 2-(4-chloro-3-fluorophenoxy)-N-(3-{2-[(6-chloro-5-fluoropyridin-3-yl)oxy]acetamido}bicyclo[1.1.1]pentan-1-yl)acetamide]
The EC50 of the first is higher: 0.01 to 0.05 µM for the first, under 0.01 µM for the second.

`O=C(COc1ccc(Cl)c(Cl)c1)NC12CC(NC(=O)COc3cnc(C(F)(F)F)cn3)(C1)C2` [Compound 105, 2-(3,4-dichlorophenoxy)-N-[3-(2-{[5-(trifluoromethyl)pyrazin-2-yl]oxy}acetamido)bicyclo[1.1.1]pentan-1-yl]acetamide] and `O=C(COc1ccnc(C(F)F)c1)NC12CC(NC(=O)COc3ccc(Cl)c(F)c3)(C1)C2` [Compound 378, 2-(4-chloro-3-fluorophenoxy)-N-[3-(2-{[2-(difluoromethyl)pyridin-4-yl]oxy}acetamido)bicyclo[1.1.1]pentan-1-yl]acetamide] fall in the same range of EC50: 0.01 to 0.05 µM for the first, 0.01 to 0.05 µM for the second.

Compared with `O=C(COc1ccc(Cl)c(F)c1)NC12CC(N(CCCOc3ccc(Cl)c(F)c3)CCCOc3ccc(Cl)c(F)c3)(C1)C2` [Compound 704, N-(3-{bis[3-(4-chloro-3-fluorophenoxy)propyl]amino}bicyclo[1.1.1]pentan-1-yl)-2-(4-chloro-3-fluorophenoxy)acetamide], `CN(C(=O)COc1ccc(Cl)c(Cl)c1)C12CC(NC(=O)COc3ccc(Cl)cc3)(C1)C2` [Compound 199, N-{3-[2-(4-chlorophenoxy)acetamido]bicyclo[1.1.1]pentan-1-yl}-2-(3,4-dichlorophenoxy)-N-methylacetamide] is lower in EC50: 0.25 to 0.5 µM for the first, 0.05 to 0.25 µM for the second.

First: COc1ncc(OCC(=O)NC23CCC(NC(=O)COc4ccc(Cl)c(F)c4)(CC2)C(=O)N3)cn1 [Compound 690, 2-(4-chloro-3-fluorophenoxy)-N-(1-{2-[(2-methoxypyrimidin-5-yl)oxy]acetamido}-3-oxo-2-azabicyclo[2.2.2]octan-4-yl)acetamide]
Second: O=C(COc1ccc(Cl)c(Cl)c1)NC12CCC(NC(=O)COc3ccc(Cl)c(F)c3)(CC1)C(=O)N2 [Compound 602, 2-(4-chloro-3-fluorophenoxy)-N-{1-[2-(3,4-dichlorophenoxy)acetamido]-3-oxo-2-azabicyclo[2.2.2]octan-4-yl}acetamide]
The EC50 of the first is higher: 0.25 to 0.5 µM for the first, under 0.01 µM for the second. The second is the more potent here.

First: COCCN1C(=O)C2(NC(=O)COc3ccc(Cl)c(F)c3)CCC1(NC(=O)COc1ccc(Cl)c(F)c1)CC2 [Compound 676, N,N′-[2-(2-methoxyethyl)-3-oxo-2-azabicyclo[2.2.2]octane-1,4-diyl]bis[2-(4-chloro-3-fluorophenoxy)acetamide]]
Second: CO[C@@H]1C[C@]2(NC(=O)COc3ccc(Cl)c(F)c3)CC[C@@]1(NC(=O)COc1ccc(Cl)c(F)c1)CC2O (mixture of isomers) [Compound 554, rac-N,N′-[(1R,4R,5R)-2-hydroxy-5-methoxybicyclo[2.2.2]octane-1,4-diyl]bis[2-(4-chloro-3-fluorophenoxy)acetamide]]
The EC50 of the first is higher: 0.25 to 0.5 µM for the first, under 0.01 µM for the second. The second is the more potent here.

First: N#Cc1ccc(COCC(=O)NC23CC(NC(=O)COc4ccc(Cl)c(F)c4)(C2)C3)cn1 [Compound 283, 2-(4-chloro-3-fluorophenoxy)-N-(3-{2-[(6-cyanopyridin-3-yl)methoxy]acetamido}bicyclo[1.1.1]pentan-1-yl)acetamide]
Second: O=C(COc1ccc(Cl)c(F)c1)NC12CC(NC(=O)COc3cnc4ccoc4c3)(C1)C2 [Compound 255, 2-(4-chloro-3-fluorophenoxy)-N-(3-{2-[(furo[3,2-b]pyridin-6-yl)oxy]acetamido}bicyclo[1.1.1]pentan-1-yl)acetamide]
The EC50 of the first is higher: 0.5 to 2 µM for the first, 0.05 to 0.25 µM for the second.

Compared with `O=C(COc1ccc(Cl)c(F)c1)NC12CC(NS(=O)(=O)Cc3ccccc3)(C1)C2` [Compound 479, 2-(4-chloro-3-fluorophenoxy)-N-{3-[(phenylmethanesulfonyl)amino]bicyclo[1.1.1]pentan-1-yl]acetamide], `CS(=O)(=O)c1ccc(OCC(=O)NC23CCC(NC(=O)COc4ccc(Cl)c(F)c4)(CC2)C[C@@H]3O)cc1` [Compound 504, 2-(4-chloro-3-fluorophenoxy)-N-[(3S)-3-hydroxy-4-{2-[4-(methanesulfonyl)phenoxy]acetamido}bicyclo[2.2.2]octan-1-yl] acetamide] is lower in EC50: over 2 µM for the first, 0.05 to 0.25 µM for the second. The second is the more potent here.

First: N#Cc1ccc(OCC(=O)NC23CC(NC(=O)COc4ccc5c(c4)OC(F)(F)O5)(C2)C3)cn1 [Compound 267, 2-[(6-cyanopyridin-3-yl)oxy]-N-(3-{2-[(2,2-difluoro-2H-1,3-benzodioxol-5-yl)oxy]acetamido}bicyclo[1.1.1]pentan-1-yl)acetamide]
Second: O=C(COc1ccc(Cl)c(CO)c1)NC12CC(NC(=O)COc3ccc4c(c3)OC(F)(F)O4)(C1)C2 [Compound 276, 2-[4-chloro-3-(hydroxymethyl)phenoxy]-N-(3-{2-[(2,2-difluoro-2H-1,3-benzodioxol-5-yl)oxy]acetamido}bicyclo[1.1.1]pentan-1-yl)acetamide]
The EC50 of the first is higher: 0.05 to 0.25 µM for the first, 0.01 to 0.05 µM for the second. The second is the more potent here.

`O=C(COc1ccc(C(F)(F)F)c(F)c1)NC12CCC(NC(=O)COc3ccc(C(F)(F)F)c(F)c3)(CC1)[C@@H](O)C2` [Compound 821, N,N′-[(2S)-2-hydroxybicyclo[2.2.2]octane-1,4-diyl]bis{2-[3-fluoro-4-(trifluoromethyl)phenoxy]acetamide}] and `O=C(COc1ccc(Cl)cc1)NC12CCC(NC(=O)COc3ccc(C(F)(F)F)c(F)c3)(CC1)[C@@H](O)C2` [Compound 834, 2-(4-chlorophenoxy)-N-[(3S)-4-{2-[3-fluoro-4-(trifluoromethyl)phenoxy]acetamido}-3-hydroxybicyclo[2.2.2]octan-1-yl]acetamide] cannot be ordered by EC50: under 0.01 µM for the first, under 0.01 µM for the second.

`O=C(COc1ccc(Cl)c(F)c1)N[C@H]1C[C@H]2C[C@@H]1C[C@@H]2NC(=O)COc1ccc(Cl)c(F)c1` (single isomer, unassigned) [Compound 620] and `O=C(COc1ccc(Cl)c(F)c1)NC1CCC2(NC(=O)COc3ccc(Cl)c(F)c3)CCC1C2` (stereo not shown) [Compound 573, N,N′-(bicyclo[3.2.1]octane-1,4-diyl)bis[2-(4-chloro-3-fluorophenoxy)acetamide]] cannot be ordered by EC50: under 0.01 µM for the first, under 0.01 µM for the second.

Compared with `O=C(COc1ccc(F)c(OC(F)(F)F)c1)NC12CCC(NC(=O)COc3ccc(Cl)c(F)c3)(CC1)[C@@H](O)C2` [Compound 820, 2-(4-chloro-3-fluorophenoxy)-N-[(2S)-4-{2-[4-fluoro-3-(trifluoromethoxy)phenoxy]acetamido}-2-hydroxybicyclo[2.2.2]octan-1-yl]acetamide], `COCc1cccc(OCC(=O)NC23CCC(NC(=O)COc4ccc(Cl)c(F)c4)(CC2)[C@@H](O)C3)c1` [Compound 777, 2-(4-chloro-3-fluorophenoxy)-N-[(2S)-2-hydroxy-4-{2-[3-(methoxymethyl)phenoxy]acetamido}bicyclo[2.2.2]octan-1-yl]acetamide] is higher in EC50: under 0.01 µM for the first, 0.01 to 0.05 µM for the second. The first is the more potent here.

Compared with `O=C(Cc1ccc(Cl)c(F)c1)NC12CCC(NC(=O)COc3ccc(Cl)c(F)c3)(CC1)[C@@H](O)C2` [Compound 608, 2-(4-chloro-3-fluorophenoxy)-N-{(2S)-4-[2-(4-chloro-3-fluorophenyl)acetamido]-2-hydroxybicyclo[2.2.2]octan-1-yl}acetamide], `CS(=O)(=O)OC1CC2(NC(=O)COc3ccc(Cl)c(F)c3)CCC1(NC(=O)COc1ccc(Cl)c(F)c1)CC2` (stereo not shown) [Compound 344, 1,4-bis[2-(4-chloro-3-fluorophenoxy)acetamido]bicyclo[2.2.2]octan-2-yl methanesulfonate] is lower in EC50: 0.05 to 0.25 µM for the first, under 0.01 µM for the second.

First: Cc1noc([C@H]2CC3(NC(=O)COc4ccc(Cl)c(F)c4)CCC2(NC(=O)COc2ccc(Cl)c(F)c2)CC3)n1 [Compound 420, N,N′-[(2S)-2-(3-methyl-1,2,4-oxadiazol-5-yl)bicyclo[2.2.2]octane-1,4-diyl]bis[2-(4-chloro-3-fluorophenoxy)acetamide]]
Second: N#Cc1ncc(OCC(=O)NC23CCC(NC(=O)COc4ccc(Cl)c(F)c4)(CC2)[C@@H](O)C3)cn1 [Compound 623, 2-(4-chloro-3-fluorophenoxy)-N-[(2S)-4-{2-[(2-cyanopyrimidin-5-yl)oxy]acetamido}-2-hydroxybicyclo[2.2.2]octan-1-yl]acetamide]
The EC50 of the first is lower: under 0.01 µM for the first, 0.01 to 0.05 µM for the second.

First: O=C(COc1ccc(Cl)c(F)c1)NC12CCC(NC(=O)COc3cnc(C(F)F)cn3)(CC1)[C@@H](O)C2 [Compound 382, 2-(4-chloro-3-fluorophenoxy)-N-[(3S)-4-(2-{[5-(difluoromethyl)pyrazin-2-yl]oxy}acetamido)-3-hydroxybicyclo[2.2.2]octan-1-yl]acetamide]
Second: O=C(COc1ncc(C(F)(F)F)cn1)NC12CCC(NC(=O)COc3ccc(Cl)c(F)c3)(CC1)[C@@H](O)C2 [Compound 630, 2-(4-chloro-3-fluorophenoxy)-N-[(2S)-2-hydroxy-4-(2-{[5-(trifluoromethyl)pyrimidin-2-yl]oxy}acetamido)bicyclo[2.2.2]octan-1-yl]acetamide]
The EC50 of the first is higher: over 2 µM for the first, under 0.01 µM for the second.

Compared with `CC1(O)CC2(NC(=O)COc3ccc(Cl)c(F)c3)CCC1(NC(=O)COc1ccc(C(F)(F)F)nc1)CC2` (stereo not shown) [Compound 338, 2-(4-chloro-3-fluorophenoxy)-N-[3-hydroxy-3-methyl-4-(2-{[6-(trifluoromethyl)pyridin-3-yl]oxy}acetamido)bicyclo[2.2.2]octan-1-yl]acetamide], `O=C(CCOc1ccc(Cl)c(F)c1)NC12CCC(NC(=O)COc3ccc(Cl)cc3)(CC1)CC2` [Compound 729, 3-(4-chloro-3-fluorophenoxy)-N-{4-[2-(4-chlorophenoxy)acetamido]bicyclo[2.2.2]octan-1-yl}propanamide] is higher in EC50: 0.01 to 0.05 µM for the first, 0.05 to 0.25 µM for the second.

`O=C(Cn1cc(F)cnc1=O)NC12CCC(NC(=O)COc3ccc(Cl)c(F)c3)(CC1)[C@@H](O)C2` [Compound 646, 2-(4-chloro-3-fluorophenoxy)-N-{(2S)-4-[2-(5-fluoro-2-oxopyrimidin-1(2H)-yl)acetamido]-2-hydroxybicyclo[2.2.2]octan-1-yl}acetamide] was tested, and the EC50 was 0.5 to 2 µM.
